# According to US20250304540A1, “2-METHYL-2-THIAZOLINE SALT” (Myrodia Therapeutics Co., Ltd., priority 2022, published 2025):
# Counter-ions that a name gives are not always drawn.
# Assays:
# Assay type in all cases: physicochemical
# [1] = Solubility in phosphate buffered saline by visual observation; details: aqueous buffer, thermodynamic from solid, phosphate buffered saline (PBS pH 7.2-7.4), room temperature
# Method: When 2-MT-NDSA salt (20 mg) was added to phosphate buffered saline (PBS pH 7.2-7.4, FUJIFILM Wako Pure Chemical Corporation 164-18541, 1 mL) at room temperature, the salt was dissolved easily. The 2-MT-NDSA salt was further added by […] to the solution. By visual observation to confirm dissolution, undissolved remainder was confirmed when the total amount reached 200 mg. Thus, the solubility under the present conditions was 100 mg/mL to 200 mg/mL.
# [2] = Stability in the solid state at 40° C., checked by 1H NMR; details: vial, heated to 40° C., left standing for three days
# Method: 2-MT-NDSA salt was placed in a vial, heated to 40° C., and left standing for three days. […] Thus, it can be said that 2-MT·NDSA salt is stable in the solid state at 40° C. for 3 days (corresponding to 2 weeks at 25° C.).
# [3] = Deliquescence by visual observation; details: relative humidity of about 75%, 25° C., 23 hr
# Method: A petri dish containing 2-MT-NDSA salt was placed in a relative humidity of about 75%, and left standing in a thermostatic tank at 25° C. for 23 hr.
# [4] = Humidity stress test with XRPD analysis; details: unsealed vial, 7 days
# Method: XRPD analyses were performed using a Panalytical Empyrean diffractometer equipped with a Cu X-ray tube and a PIXcel 1D-Medipix3 detector system. The samples were analyzed at ambient temperature in transmission mode and held between low density PVC films. The XRPD program was used (range 3-40° […], step size 0.013°, counting time 99 sec, about 22 min run time/counting time 49 sec, about 11 min run time/counting time 22 sec, about 5 min run time). Samples were spun at 60 rpm during data collection. XRPD patterns were sorted and manipulated using HighScore Plus 2.2c/v4.9 software.
# A given amount of salt was charged into a vial and placed unsealed in a thermostatic tank at 40° C./75% relative humidity or ambient temperature for 7 days and XRPD analysis was performed.
smiles,measurement,setting,value
"CC1=NCCS1 [2-MT-NDSA salt, monohydrate of a hemi-1,5-naphthalenedisulfonic acid salt of 2-methyl-2-thiazoline]",solubility,[1],100 to 200 mg/mL
same,stability in the solid state (1H NMR before and after),[2],no change in the peaks was observed
same,deliquescence,[3],No deliquescence
same,physical stability post storage (XRPD),[4]; 40° C./75% relative humidity,physically stable
same,physical stability post storage (XRPD),[4]; ambient temperature,physically stable
